Measurements taken from patent publication US8642644B2, “Ophthamological drugs” (Duke University, priority 2004, dated 2014).

Key:
[1] = system: intraocular pressure (IOP); experiment: Effects on intraocular pressure (IOP) after topical administration to normotensive Dutch-belted rabbits (Example 15); type: in vivo, rabbit; conditions: for Maximum reduction of IOP (absolute) / Maximum reduction of IOP (percent): once a day for three days
Excerpt: In order to study the utility of the compounds in the treatment of glaucoma, their effects on intraocular pressure (IOP) were investigated following administration to normotensive rabbits.
5-O-Ribitol [2,3-dichloro-4-(thiophene-2-carbonyl)]phenoxyacetate: 10% and 15% in a lanolin base.
5-O-Xylitol 4-(2-phenylacryloyl)cinnamate: 0.3% and 0.6% mixed equimolar with cysteine in solution.
11-Hydroxy-3,6,9-trioxaundecyl 4-(2-phenylacryloyl)cinnamate: 0.3% and 0.6% mixed equimolar with cysteine in solution.
Eyedrops administered topically to male Dutch-belted rabbits (3-5 kg). IOP determinations made with pneumatonometer (Medtronic Solan, Jacksonville, Fla.) as the average of three measurements per eye at each timepoint. Prior to IOP determination and drug administration, eyes were topically anesthetized with proparacaine hydrochloride, 0.5% (Bausch and Lomb, Inc, Tampa, Fla.).
5-O-Ribitol [2,3-dichloro-4-(thiophene-2-carbonyl)]phenoxyacetate: Eyedrops containing the compound were administered once a day for three days. The contralateral eye was administered lanolin base. IOP was assessed in the morning and afternoon for seven days.
5-O-Xylitol 4-(2-phenylacryloyl)cinnamate: Eyedrops containing the compound were administered twice daily for 7 days. The contralateral eye was left untreated to serve as a control. IOP was assessed concurrently with drug administration.
5-O-{(9α,11α,15R)-15-[2-Benzo[b]thiophen-2-yl]-16,17,18,19,20-pentanor-5,6,13,14-tetrahydro-9,11,15-trihydroxyprostanoyl}xylitol: Eyedrops containing the compound were administered once daily for 7 days. No drug was given on days 8 and 9. The animals were then treated once daily on days 10 through 14. IOP was assessed concurrently with drug administration.
1-O-{(9α,11α,15R)-15-[2-Benzo[b]thiophen-2-yl]-16,17,18,19,20-pentanor-5,6,13,14-tetrahydro-9,11,15-trihydroxyprostanoyl}-11-hydroxy-3,6,9-trioxaundecane: Eyedrops containing the compound were administered once daily for 5 days. The contralateral eye was left untreated to serve as a control. IOP was assessed concurrently with drug administration.
11-Hydroxy-3,6,9-trioxaundecyl 4-(2-phenylacryloyl)cinnamate: Eyedrops containing the compound were administered twice daily for 7 days. The contralateral eye was left untreated to serve as a control. IOP was assessed concurrently with drug administration.

[2] = Activity against glaucoma (stated in words)
intraocular pressure [3] = experiment: Intraocular pressure lowering by ticrynafen-ribitol ester ointment in the Dutch Belted rabbit model (Example 3); type: in vivo; conditions: for Maximal pressure reduction: topical, doses at 0, 24 and 48 hours
Experimental: Ticrynafen-ribitol ester was formulated as an ointment in 5, 10, and 15% concentrations. The Dutch Belted rabbit model was used to test the formulation for both pressure lowering and side effects. Baseline intraocular pressures were obtained by placing one drop of proparacaine in each eye followed by pressure measurements utilizing a Pneumotonometer®. […] The second eye was used as a control with application of lanolin ointment without drug. Repeat doses were given at 24 hour intervals for a total of three doses (0, 24, and 48 hours). Intraocular pressures were recorded every 12 hours for one week. A total of twelve rabbits received the 5% ointment, eight rabbits the 10% ointment, and eight rabbits the 15% ointment. FIG. 4 presents the 10% data with statistically significant timepoints indicated by double asterisks.

[4] = Solubility in petrolatum/lanolin mixtures; type: physicochemical
intraocular pressure [5] = experiment: Intraocular pressure lowering by 0.004% AR101 solution in the Dutch Belted rabbit model (Example 6); type: in vivo; conditions: 0.004% solution; loading dose 3 drops day 0 and 10, one drop daily days 1-7 and 10-14; versus contralateral control eye
Excerpt: The xylitol prostaglandin ester of Formula V (also called AR101) was formulated as a 0.004% solution for topical administration. The Dutch Belted Rabbit model was used to test the formulation for both pressure lowering and side effects. Baseline intraocular pressures were obtained by placing one drop of proparacaine in each eye followed by pressure measurements with a Pneumotonometer®. One eye of each rabbit received a loading dose of 3 drops 0.004% AR101 on day 0 and day 10. One drop of AR101 was given daily on days 1-7 and 10-14. No drug was given on days 8 and 9. The contralateral control eye received balanced salt solution drops without AR101. Intraocular pressure measurements were recorded every 12 hours for two weeks.

[6] = 0.3% mixed equimolar with cysteine in solution, twice daily for 7 days
[7] = 0.6% mixed equimolar with cysteine in solution, twice daily for 7 days
[8] = 0.004% in solution, once daily for 5 days
[9] = 0.02% in solution, once daily for 5 days
[10] = 10% in lanolin base, at 36 hours
[11] = 15% in lanolin base, at 60 hours
[12] = 0.004% in solution, once daily days 1-7 and 10-14

Experimental for pig liver esterase: Since the sugar alcohol moiety imparts water-solubility to the compounds, an assay can be readily set up to determine the optimal sugar alcohol for each drug moiety based on the release rate thus: A commercially-available preparation of esterase, such as porcine liver esterase (Sigma Corp., St. Louis), is prepared at a standard concentration. The drug-sugar alcohol combination, dissolved in methanol or a methanol-water or methanol-acetonitrile combination, is added dropwise to the esterase and the rate at which the compound is released from the alcohol is determined. The analytical technique used to determine the amount of free acid will vary with the acid used, but a typical procedure would be by TLC, or reverse-phase TLC, or HPLC or by Mass Spectroscopy. One skilled in the art can readily determine the optimal analytical method for each sugar-acid pair evaluated. This assay can easily be adapted to be run in a 96-well plate format, or other high-throughput method of determining activity.

C=C(C(=O)c1ccc(/C=C/C(=O)OC[C@@H](O)[C@H](O)[C@@H](O)CO)cc1)c1ccccc1 [Formula VIII, 5-O-Xylitol 4-(2-phenylacryloyl)cinnamate]
Maximum reduction from untreated control [1, 6]: −2.4 mmHg
Maximum reduction from untreated control (percent) [1, 6]: 11%
Maximum reduction from untreated control [1, 7]: −2.4 mmHg
Maximum reduction from untreated control (percent) [1, 7]: 13%

C=C(C(=O)c1ccc(C=CC(=O)OCCOCCOCCOCCO)cc1)c1ccccc1 [11-Hydroxy-3,6,9-trioxaundecyl 4-(2-phenylacryloyl)cinnamate]
Maximum reduction from untreated control [1, 6]: −1.7 mmHg
Maximum reduction from untreated control (percent) [1, 6]: 8%
Maximum reduction from untreated control [1, 7]: −1.9 mmHg
Maximum reduction from untreated control (percent) [1, 7]: 8%

O=C(CCCCCC[C@@H]1[C@@H](CCC(O)c2cc3ccccc3s2)[C@H](O)C[C@@H]1O)OCCOCCOCCOCCO (stereo partly drawn) [1-O-{(9α,11α,15R)-15-[2-Benzo[b]thiophen-2-yl]-16,17,18,19,20-pentanor-5,6,13,14-tetrahydro-9,11,15-trihydroxyprostanoyl}-11-hydroxy-3,6,9-trioxaundecane]
Maximum reduction from untreated control [1, 8]: −2.8 mmHg
Maximum reduction from untreated control (percent) [1, 8]: 12%
Maximum reduction from untreated control [1, 9]: −3.0 mmHg
Maximum reduction from untreated control (percent) [1, 9]: 17%

O=C(O)CCCCCC[C@@H]1[C@@H](CC[C@@H](O)c2cc3ccccc3s2)[C@H](O)C[C@@H]1O [Formula II]
Activity against glaucoma, in words [2]: strong activity against glaucoma

O=C(COc1ccc(C(=O)c2cccs2)c(Cl)c1Cl)OC[C@H](O)[C@H](O)[C@H](O)CO [Formula III, 5-O-Ribitol [2,3-dichloro-4-(thiophene-2-carbonyl)]phenoxyacetate]
Maximal pressure reduction (intraocular pressure [3]; 5% ointment, maximum at 54 hours): 11%
Maximal pressure reduction (intraocular pressure [3]; 10% ointment, maximum at 36 hours): 18%
Maximal pressure reduction (intraocular pressure [3]; 15% ointment, maximum at 60 hours): 13%
Reduction of intraocular pressure (IOP), in words (intraocular pressure [3]; Dutch-Belted white rabbits, petrolatum/lanolin ointment): reduces intraocular pressure (IOP) in a dose-dependent fashion
Maximum reduction of IOP (absolute) [1, 10]: −4.3
Maximum reduction of IOP (percent) [1, 10]: 18%
Maximum reduction of IOP (absolute) [1, 11]: −3.0
Maximum reduction of IOP (percent) [1, 11]: 13%
Solubility in petrolatum/lanolin mixtures [4]: completely soluble

O=C(CCCCCC[C@@H]1[C@@H](CC[C@@H](O)c2cc3ccccc3s2)[C@H](O)C[C@@H]1O)OC[C@@H](O)[C@H](O)[C@@H](O)CO [Formula V, 5-O-{(9α,11α,15R)-15-[2-Benzo[b]thiophen-2-yl]-16,17,18,19,20-pentanor-5,6,13,14-tetrahydro-9,11,15-trihydroxyprostanoyl}xylitol]
Statistically significant pressure reductions between eyes (days) (intraocular pressure [5]): Statistically significant pressure reductions between eyes were observed on days 3, 7, and 11
Hydrolysis by pig liver esterase (pig liver esterase): readily hydrolyzed
Significant reductions of IOP from baseline (days) [1, 12]: Significant reductions from baseline on days 2, 3, 5, 11, and 12
Significant reductions of IOP from baseline and untreated control (days) [1, 12]: Significant reductions from baseline and untreated control on days 3, 5, and 11

O=C(O)COc1ccc(C(=O)c2cccs2)c(Cl)c1Cl [Formula IV, Ticrynafen]
Activity against glaucoma, in words [2]: little or no activity
